# Data: patent US20100129434A1, “COMPOSITIONS AND METHODS FOR THE TREATMENT OF MUCORMYCOSIS AND OTHER FUNGAL DISEASES” (priority 2006, published 2010)
# Entries after “also recorded” stand apart in the source; their conditions may differ.
# Tests used:
# R. oryzae = assay: Tissue fungal burden of DKA mice infected with R. oryzae; format: in vivo, BALB/c male mice
# Method: Briefly, for in vivo infection, BALB/c male mice (>20 g) were rendered diabetic with a single i.p. injection of 210 mg/kg streptozotocin in 0.2 ml citrate buffer 10 days prior to fungal challenge. […] Mice were infected through the tail vein with the appropriate inocula of R. oryzae. To confirm the inocula, dilutions were streaked on PDA plates and colonies were counted following a 24 h incubation period at room temperature. The primary efficacy endpoint was time to death. As a secondary endpoint, brain fungal burden (the primary target organ) was determined by homogenization by rolling a pipette on organs placed in Whirl-Pak bags (Nasco, Fort Atkinson, Wis.) containing 2 ml saline. The homogenate was serially diluted in 0.85% saline and then quantitatively cultured on PDA. Values were expressed as log 10 cfu g^−1 tissue. All procedures involving mice were approved by the institutional animal use and care committee, following the National Institutes of Health guidelines for animal housing and care.
# For in vivo infection, BALB/c male mice (>20 g) were rendered diabetic with a single i.p. injection of 210 mg/kg streptozotocin in 0.2 ml citrate buffer 10 days prior to fungal challenge. […] For neutropenic mouse model, mice were injected with a single i.p. dose of 200 mg/kg cyclolphosphamide (Bristol Myer Squibb) 2 days prior to infection with R. oryzae. […] Mice were infected through the tail vein with the appropriate inocula of R. oryzae. To confirm the inocula, dilutions were streaked on PDA plates containing 0.1% triton and colonies were counted following a 24 h incubation period at 37° C. The primary efficacy endpoint was time to death. As a secondary endpoint, brain fungal burden (the primary target organ) was determined by homogenization by rolling a pipette on organs placed in Whirl-Pak™ bags (Nasco®, Fort Atkinson, Wis.) containing 1 ml saline. The homogenate was serially diluted in 0.85% saline and then quantitatively cultured on PDA. Values were expressed as log10 cfu g−1 tissue. Finally, for histopathological analysis, infected organs were collected from mice and fixed in 10% zinc formalin. Fixed tissues were embedded in paraffin, and […] sections were stained with haematoxylin and eosin for light microscopy examination. All procedures involving mice were approved by the institutional animal use and care committee, following the National Institutes of Health guidelines for animal housing and care.
# rFTR1 = assay: Expression analysis of the high affinity iron permease gene (rFTR1) by RT-PCR; format: cell-based, Rhizopus oryzae; conditions: R. oryzae 99-880 mycelia; 2 mM deferasirox plus 350 μM ferric chloride, 1 h at 37° C.
# Method: R. oryzae 99-880 plugs taken from a confluent PDA plate were grown in potato dextrose broth overnight at 37° C. with shaking. Mycelia were collected aseptically and transferred to fresh PDB flasks containing 350 μM ferric chloride (to suppress the expression of rFTR1), 350 μM ferric chloride plus 2 mM deferasirox to test iron chelation, or 2 mM deferasirox plus 6 mM ferric chloride to supersaturate the added deferasirox. The flasks were incubated for 1 h at 37° C. with shaking. Mycelia were collected by filtration and ground in liquid nitrogen using mortar and pestle. Total RNA was extracted using RNeasy Plabt Mini™ kit (Qiagen®) with RLC buffer. The RNA was reverse-transcribed with oligo(dT) primer using the SuperScript™ First-Strand Synthesis System (Invitrogen®) to generate first-strand cDNA. The products were diluted and used in PCR to detect the expression of FTR1 of R. oryzae and 18 s rDNA gene. The sequences of the PCR primers are as follows: sense primer 5′-[…] -3′ and anti-sense primer 5′-[…] -3′ for rFTR1 to amplify of R. oryzae; and sense primer 5′-[…]′T′[…] -3′ and anti-sense primer 5′-[…] -3′ for 18 s rDNA gene. The PCR products were separated on a 2% agarose gel containing 0.1 μg/ml ethidium bromide. Both primer sets were designed to amplify a 400 by bands. […]
# Non-oryzae Rhizopus = assay: Deferasirox susceptibility testing (MIC/MFC), non-oryzae Rhizopus isolates; format: cell-based, Rhizopus spp.
# Method: Minimum inhibitory concentration (MIC) and minimum fungicidal concentration (MFC) were determined for deferasirox by the method of Espinel-Ingroff using R. oryzae spores starved for iron (Espinel-Ingroff, (2001), supra). Cidality was defined as a <4-fold difference between MIC and MFC.
# We next determined the deferasirox susceptibilities of multiple clinical isolates of Mucorales (Table 3). The MIC9OS of deferasirox against Mucor, non-oryzae Rhizopus spp., and R. oryzae were 3.12 to 6.25 μg/ml. MFCs were similar to MICs, and deferasirox was cidal for 28/29 (97%) of isolates. Of note, slight growth was seen within the first twelve hours even at extremely high concentrations of deferasirox. […] Furthermore, the MICs and MFCs of deferasirox against these isolates were well below clinically achievable peak (˜38 μg/ml) and trough serum levels (˜17 μg/ml) of the drug at steady state when administered at the FDA-approved starting dose (20 mg/kg/d).
# [1] = 4.2×10^4 spores R. oryzae 99-892, 10 mg/kg bid, 3 days, vs placebo or deferasirox plus saturating ferric chloride
# [2] = 24 h, R. microsporus ATCC 62417
# [3] = 48 h, R. microsporus ATCC 62417
# [4] = Non-oryzae Rhizopus MIC90/MFC90, 24 h
# [5] = Non-oryzae Rhizopus MIC90/MFC90, 48 h
# [6] = Rhizopus, 24 h, Rhizopus sp. 99-1150
# [7] = Rhizopus, 24 h, Rhizopus sp. 99-1700
# [8] = Rhizopus, 48 h, Rhizopus sp. 99-1150
# [9] = Rhizopus, 48 h, Rhizopus sp. 99-1700
# [10] = Rhizopus, ATCC20577, 24 h, Rhizopus sp. ATCC 20577, 24 h
# [11] = Rhizopus, ATCC20577, 48 h, Rhizopus sp. ATCC 20577, 48 h
structure (smiles),measurement,setting,value
"O=C(O)c1ccc(-n2nc(-c3ccccc3O)nc2-c2ccccc2O)cc1 [Deferasirox, 4-[3,5-Bis(2-hydroxyphenyl)-1H-1,2,4-triazol-1-yl]-benzoic acid]",decrease in brain fungal burden,R. oryzae; [1],greater than 10 fold
same,decrease in kidney fungal burden,R. oryzae; [1],greater than 10 fold
same,brain CFUs compared to placebo,"R. oryzae; R. oryzae 99-880, monotherapy, organs harvested day 3",neither drug alone was able to reduce brain CFUs
same,rFTR1 gene expression (RT-PCR),rFTR1,expressed; also recorded: induces rFTR1 gene expression
same,MFC,Non-oryzae Rhizopus; [2],0.39 µg/mL
same,MIC,Non-oryzae Rhizopus; [2],0.39 µg/mL
same,MFC,Non-oryzae Rhizopus; [3],0.39 µg/mL
same,MIC,Non-oryzae Rhizopus; [3],0.39 µg/mL
same,Fungicidal?,Non-oryzae Rhizopus; [4],Y (Cidal = MFC/MIC ≦ 4)
same,MFC90,Non-oryzae Rhizopus; [4],6.25 µg/mL
same,MIC90,Non-oryzae Rhizopus; [4],6.25 µg/mL
same,Fungicidal?,Non-oryzae Rhizopus; [5],Y (Cidal = MFC/MIC ≦ 4)
same,MFC90,Non-oryzae Rhizopus; [5],6.25 µg/mL
same,MIC90,Non-oryzae Rhizopus; [5],3.12 µg/mL
same,Fungicidal?,"Non-oryzae Rhizopus; R. microsporus ATCC 62417, 24 h",Y (Cidal = MFC/MIC ≦ 4)
same,Fungicidal?,"Non-oryzae Rhizopus; R. microsporus ATCC 62417, 48 h",Y (Cidal = MFC/MIC ≦ 4)
same,Fungicidal?,"Non-oryzae Rhizopus; Rhizopus sp. 99-1150, 24 h",Y (Cidal = MFC/MIC ≦ 4)
same,Fungicidal?,"Non-oryzae Rhizopus; Rhizopus sp. 99-1150, 48 h",Y (Cidal = MFC/MIC ≦ 4)
same,Fungicidal?,"Non-oryzae Rhizopus; Rhizopus sp. 99-1700, 24 h",Y (Cidal = MFC/MIC ≦ 4)
same,Fungicidal?,"Non-oryzae Rhizopus; Rhizopus sp. 99-1700, 48 h",Y (Cidal = MFC/MIC ≦ 4)
same,Fungicidal?,"Non-oryzae Rhizopus; Rhizopus sp. ATCC 20577, 24 h",Y (Cidal = MFC/MIC ≦ 4)
same,Fungicidal?,"Non-oryzae Rhizopus; Rhizopus sp. ATCC 20577, 48 h",Y (Cidal = MFC/MIC ≦ 4)
same,MFC,Non-oryzae Rhizopus; [6],6.25 µg/mL
same,MIC,Non-oryzae Rhizopus; [6],6.25 µg/mL
same,MFC,Non-oryzae Rhizopus; [7],6.25 µg/mL
same,MIC,Non-oryzae Rhizopus; [7],6.25 µg/mL
same,MFC,Non-oryzae Rhizopus; [8],3.12 µg/mL
same,MIC,Non-oryzae Rhizopus; [8],3.12 µg/mL
same,MFC,Non-oryzae Rhizopus; [9],1.56 µg/mL
same,MIC,Non-oryzae Rhizopus; [9],1.56 µg/mL
same,MFC,Non-oryzae Rhizopus; [10],6.25 µg/mL
same,MIC,Non-oryzae Rhizopus; [10],3.12 µg/mL
same,MFC,Non-oryzae Rhizopus; [11],6.25 µg/mL
same,MIC,Non-oryzae Rhizopus; [11],3.12 µg/mL
